The subject of test [1] is KRas-mediated phosphorylation of ERK in H727 cells. Nature of the test: Inhibition of KRas-mediated phosphorylation of ERK (Cisbio HTRF pERK), H727 cells. It counts as cell-based. The conditions noted are these: Homo sapiens; for inhibition at 0.1 µM: NCI-H727, 3 h, single point, 100 nM compound, 3 hrs, H727 cells; for IC50: NCI-H727, H727 cells, HTRF pERK. The procedure, abridged:
(§1)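 A cell-based HTRF pERK assay: ten-point, threefold titrations beginning at 10 uM were applied for 3 hrs, with 0.2 uM Trametinib wells as the minimum control. Cells were lysed cold, and lysate was incubated with the antibody pair for 2 hrs before reading.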
(In general: In TR-FRET formats the signal depends on donor and acceptor labels being close together.)

The subject of test [2] is KRas-mediated phosphorylation of ERK in A549 cells. Nature of the test: Inhibition of KRas-mediated phosphorylation of ERK (Cisbio HTRF pERK), A549 cells. It counts as cell-based. The conditions noted are these: Homo sapiens; for inhibition at 0.1 µM: A549, 3 h, single point, 100 nM compound, 3 hrs; for IC50: HTRF pERK. An outline of the steps:
(§2)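 Phosphorylated ERK was quantified by HTRF using d2-conjugate and Cryptate antibodies added to lysates for 2 hrs at room temperature.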

The next test concerns the target T1, KRas^G12V (Homo sapiens, UniProt P01116, G12V).
T1 construct: Biotinylated KRas (corresponding to amino acids 1-169, produced at Accelegan Inc.); biotin (biotinylated); purchased Accelegan Inc
Nature of the test: KRas binding assay (TR-FRET tracer displacement), KRas G12V.

In a further test the target is T2, KRas^G12D (Homo sapiens, UniProt P01116, G12D).
T2 construct: Biotinylated KRas (corresponding to amino acids 1-169, produced at Accelegan Inc.); biotin (biotinylated); purchased Accelegan Inc
T2 sequence (P01116 1-169 isoform P01116-2 G12D): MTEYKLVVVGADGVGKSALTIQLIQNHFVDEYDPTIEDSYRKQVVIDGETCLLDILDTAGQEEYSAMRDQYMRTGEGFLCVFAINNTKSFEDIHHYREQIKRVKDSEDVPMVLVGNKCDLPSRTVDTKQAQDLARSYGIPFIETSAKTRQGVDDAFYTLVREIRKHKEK
Description: KRas binding assay (TR-FRET tracer displacement), KRas G12D.

The target in a further test is T3, KRas^G12R (Homo sapiens, UniProt P01116, G12R).
T3 construct: Biotinylated KRas (corresponding to amino acids 1-169, produced at Accelegan Inc.); biotin (biotinylated); purchased Accelegan Inc
T3 sequence (P01116 1-169 isoform P01116-2 G12R): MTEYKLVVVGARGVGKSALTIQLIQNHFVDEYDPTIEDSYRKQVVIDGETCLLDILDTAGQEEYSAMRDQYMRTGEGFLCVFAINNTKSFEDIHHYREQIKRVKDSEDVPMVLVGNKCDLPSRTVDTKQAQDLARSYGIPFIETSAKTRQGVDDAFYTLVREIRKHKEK
Nature of the test: KRas binding assay (TR-FRET tracer displacement), KRas G12R.

Test [3] relates to KRas-mediated phosphorylation of ERK in H460 cells. Nature of the test: Inhibition of KRas-mediated phosphorylation of ERK (Cisbio HTRF pERK), H460 cells. It counts as cell-based. Conditions: Homo sapiens; for inhibition at 0.1 µM: NCI-H460, 3 h, single point, 100 nM compound, 3 hrs; for IC50: NCI-H460, HTRF pERK. An outline of the steps:
as §1

For test [4], the system named is KRas-mediated phosphorylation of ERK in AsPC-1 cells. Nature of the test: Inhibition of KRas-mediated phosphorylation of ERK (Cisbio HTRF pERK), AsPC-1 cells. The conditions noted are these: Homo sapiens; for inhibition at 0.1 µM: ASPC1, 3 h, single point, 100 nM compound, 3 hrs, AsPC-1 cells; for IC50: ASPC1, AsPC-1 cells, HTRF pERK. It counts as cell-based. An outline of the steps:
as §1

For test [5], the system named is KRas-mediated phosphorylation of ERK in H358 cells. Description: Inhibition of KRas-mediated phosphorylation of ERK (Cisbio HTRF pERK), H358 cells. It is filed as cell-based. Conditions: Homo sapiens; for inhibition at 0.1 µM: NCI-H358, 3 h, single point, 100 nM compound, 3 hrs; for IC50: NCI-H358, HTRF pERK. An outline of the steps: as §1
For test [6], the system named is KRas-mediated phosphorylation of ERK in HCT116 cells. Nature of the test: Inhibition of KRas-mediated phosphorylation of ERK (Cisbio HTRF pERK), HCT116 cells. It is filed as cell-based. Conditions: Homo sapiens; for inhibition at 0.1 µM: HCT-116, 3 h, single point, 100 nM compound, 3 hrs; for IC50: HCT-116, HTRF pERK. An outline of the steps: as §2

The structures appear in SMILES notation.

T1 sequence (P01116 1-169 isoform P01116-2 G12V): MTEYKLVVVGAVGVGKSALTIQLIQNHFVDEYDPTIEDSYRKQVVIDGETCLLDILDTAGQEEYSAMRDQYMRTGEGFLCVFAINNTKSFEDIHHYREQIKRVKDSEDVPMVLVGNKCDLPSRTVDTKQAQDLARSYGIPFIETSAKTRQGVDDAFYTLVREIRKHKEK

A word on the inhibition: it is the relative decrease from the control value, in per cent. The IC50 is the concentration that gives 50% inhibition. The low end stands for inhibition by little substance, the high end for a need for much substance. On to `CCc1c(F)ccc2cc(O)cc(-c3ncc4c(N5Cc6n[nH]c(CO)c6C5)nc(OC[C@@]56CCCN5C[C@H](F)C6)nc4c3F)c12` [Example 785, 5-ethyl-6-fluoro-4-(8-fluoro-2-(((2R,7aS)-2-fluorohexahydro-1H-pyrrolizin-7a-yl)methoxy)-4-(3-(hydroxymethyl)pyrrolo[3,4-c]pyrazol-5 (2H,4H,6H)-yl)pyrido[4,3-d]pyrimidin-7-yl)naphthalen-2-ol], for which the inhibition at 0.1 µM is 2% in test [1]; 8% in test [2]; 0% in test [3]; -6% in test [4]; 9% in [5]; 5% in test [6]. Further, the IC50 in [1] was over 10000 nM; on KRas^G12V, 435 nM; on KRas^G12D, 1300 nM; at KRas^G12R, 787 nM.
`CCc1c(F)ccc2cc(O)cc(-c3ncc4c(N5CCCc6nnncc6C5)nc(OC[C@@]56CCCN5C[C@H](F)C6)nc4c3F)c12` [Example 584, 4-(4-(8,9-dihydro-5H-[1,2,3]triazino[5,4-c]azepin-6(7H)-yl)-8-fluoro-2-(((2R,7aS)-2-fluorohexahydro-1H-pyrrolizin-7a-yl)methoxy)pyrido[4,3-d]pyrimidin-7-yl)-5-ethyl-6-fluoronaphthalen-2-ol]: the inhibition at 0.1 µM in test [1] is -18%; in [2] it was 14%; in test [3], 11%; in test [4], -20%; in test [5], 15%; in test [6], 3%. Besides, the 50% inhibitory concentration (IC50) in test [1] is 981 nM; on KRas^G12V, 6 nM; at KRas^G12D, under 2 nM; at KRas^G12R, 12 nM; in test [4], 231 nM.
Turning to `Cc1c(O)cc2ccccc2c1-c1ncc2c(N3C[C@@H]4C[C@H](C3)[C@H](O)C4)nc(OC[C@@]34CCCN3C[C@H](F)C4)nc2c1F` [Example 786, (1R,5R,6R)-3-(8-fluoro-2-(((2R,7aS)-2-fluorohexahydro-1H-pyrrolizin-7a-yl)methoxy)-7-(3-hydroxy-2-methylnaphthalen-1-yl)pyrido[4,3-d]pyrimidin-4-yl)-3-azabicyclo[3.2.1]octan-6-ol], the inhibition at 0.1 µM in test [1] is 15%; in test [2], 19%; in test [3], 8%; in test [4], 1%; in test [5], -3%; in test [6], 0%. The IC50 is 2820 nM in test [1]; 110 nM on KRas^G12V; 423 nM on KRas^G12D; 160 nM on KRas^G12R; 4960 nM in test [4].
As for `CCOC(=O)C12CCC(CN(c3nc(OC[C@@]45CCCN4C[C@H](F)C5)nc4c(F)c(-c5cc(O)cc6ccc(F)c(CC)c56)ncc34)C1)C2(F)F` (stereo partly drawn) [Example 899, ethyl 3-(7-(8-ethyl-7-fluoro-3-hydroxynaphthalen-1-yl)-8-fluoro-2-(((2R,7aS)-2-fluorotetrahydro-1H-pyrrolizin-7a(5H)-yl)methoxy)pyrido[4,3-d]pyrimidin-4-yl)-8,8-difluoro-3-azabicyclo[3.2.1]octane-1-carboxylate], the half-inhibitory concentration (IC50) is 4410 nM in [1]; 3530 nM in test [2]; 240 nM on KRas^G12V; 692 nM at KRas^G12D; 66 nM on KRas^G12R; 1290 nM in test [3]. Besides, the IC50 in test [4] was 5370 nM; in test [5] it was 1410 nM; in test [6], 6690 nM.
For the compound `C[C@@]1(O)CCCN(c2nc(OC[C@@]34CCCN3C[C@H](F)C4)nc3c(F)c(-c4cc(O)cc5ccccc45)ncc23)C1` [Example 917, (R)-1-(8-fluoro-2-(((2R,7aS)-2-fluorotetrahydro-1H-pyrrolizin-7a(5H)-yl)methoxy)-7-(3-hydroxynaphthalen-1-yl)pyrido[4,3-d]pyrimidin-4-yl)-3-methylpiperidin-3-ol], the IC50 in test [1] was determined as 223 nM; in [2], 233 nM; at KRas^G12V it was 7 nM; on KRas^G12D, 4 nM; on KRas^G12R, 12 nM; in test [3] it was 198 nM. Also, the IC50 amounted to 149 nM in [4], 54 nM in test [5] and 151 nM in test [6].
`CCc1c(F)ccc2cc(O)cc(-c3ncc4c(N5CC6CNC(CO)C6C5)nc(OC[C@@]56CCCN5C[C@H](F)C6)nc4c3F)c12` (stereo partly drawn) [Example 875, 5-ethyl-6-fluoro-4-(8-fluoro-2-(((2R,7aS)-2-fluorotetrahydro-1H-pyrrolizin-7a(5H)-yl)methoxy)-4-(4-(hydroxymethyl)hexahydropyrrolo[3,4-c]pyrrol-2 (1H)-yl)pyrido[4,3-d]pyrimidin-7-yl)naphthalen-2-ol]: the IC50 was over 10000 nM in test [1]; over 10000 nM in [2]; 34 nM on KRas^G12V; 17 nM on KRas^G12D; 37 nM on KRas^G12R; over 10000 nM in test [3]. For the same compound, the IC50 in test [4], in test [5] and in test [6] was over 10000 nM in each case.
For the compound `CCc1c(F)ccc2cc(O)cc(-c3ncc4c(N5CCC[C@@](C)(O)C5)nc(N5CC(C)(N)C5)nc4c3F)c12` [Example 530, (R)-1-(2-(3-amino-3-methylazetidin-1-yl)-7-(8-ethyl-7-fluoro-3-hydroxynaphthalen-1-yl)-8-fluoropyrido[4,3-d]pyrimidin-4-yl)-3-methylpiperidin-3-ol], the concentration for half-maximal inhibition (IC50) in [1] came out at 4390 nM; at KRas^G12V it was 66 nM; on KRas^G12D it was 59 nM; on KRas^G12R, 91 nM; in test [4], 2770 nM. For the same compound, the inhibition at 0.1 µM in test [2] is 15%; in test [3], 18%; in test [5], 6%; in test [6], -6%.
Consider `CCc1c(F)ccc2cc(O)cc(-c3ncc4c(N5CCCn6nc(S(=O)(=O)NC)cc6C5)nc(OC[C@@]56CCCN5C[C@H](F)C6)nc4c3F)c12` [Example 676, 5-(7-(8-ethyl-7-fluoro-3-hydroxynaphthalen-1-yl)-8-fluoro-2-(((2R,7aS)-2-fluorohexahydro-1H-pyrrolizin-7a-yl)methoxy)pyrido[4,3-d]pyrimidin-4-yl)-N-methyl-5,6,7,8-tetrahydro-4H-pyrazolo[1,5-a][1,4]diazepine-2-sulfonamide], for which the IC50 in [1] is 5130 nM; at KRas^G12V, 6 nM; at KRas^G12D, 2 nM; at KRas^G12R, 5 nM; in [4], 996 nM. The inhibition at 0.1 µM in test [2] was 19%; in test [3], 11%; in test [5], -4%; in test [6] it was 4%.
With `CCc1c(F)ccc2cc(O)cc(-c3ncc4c(NCc5cc(C(=O)N(C)C)nn5CC#N)nc(OC[C@@]56CCCN5C[C@H](F)C6)nc4c3F)c12` [Example 657, 1-(cyanomethyl)-5-(((7-(8-ethyl-7-fluoro-3-hydroxynaphthalen-1-yl)-8-fluoro-2-(((2R,7aS)-2-fluorotetrahydro-1H-pyrrolizin-7a(5H)-yl)methoxy)pyrido[4,3-d]pyrimidin-4-yl)amino)methyl)-N,N-dimethyl-1H-pyrazole-3-carboxamide], the inhibition at 0.1 µM is 19% in [1]; -2% in test [2]; -18% in test [3]; -24% in [4]; 27% in [5]; -9% in test [6]. Besides, the IC50 in test [1] is 2660 nM; at KRas^G12V, under 2 nM; on KRas^G12D, 4 nM; at KRas^G12R, under 2 nM.
Consider `CCc1c(F)ccc2cc(O)cc(-c3ncc4c(N5CCC[C@@](C)(O)C5)nc(OCC56CNCC5C6)nc4c3F)c12` (stereo partly drawn) [Example 695, (3R)-1-(2-((3-azabicyclo[3.1.0]hexan-1-yl)methoxy)-7-(8-ethyl-7-fluoro-3-hydroxynaphthalen-1-yl)-8-fluoropyrido[4,3-d]pyrimidin-4-yl)-3-methylpiperidin-3-ol], for which the 50% inhibitory concentration (IC50) in test [1] turned out to be 2690 nM; at KRas^G12V, 5 nM; on KRas^G12D, 4 nM; on KRas^G12R it was 8 nM; in test [4], 1110 nM. The inhibition at 0.1 µM in test [2] is 16%; in test [3] it was -2%; in [5], -1%; in test [6], 13%.

For the origin of these results see patent US20260015350A1, “AZAQUINAZOLINE PAN-KRAS INHIBITORS” (Mirati Therapeutics, Inc., priority 2022, published 2026).
